Here are results for 13 compounds from US7964636B2, “Synthesis and use of novel inhibitors and inactivators of protein arginine deiminases” (University of South Carolina, priority 2005, dated 2011).

Test [1] deals with T1, PAD4 (Homo sapiens, UniProt Q9UM07). The settings on record: cited from earlier work.
Test [2] addresses T1, PAD4. The experiment in a line: IC50 assays (Example 2). Format: biochemical. The settings on record: for IC50: 10 mM BAEE; for inhibition at the highest concentration tested: 500 μM.
Procedure: BAEE was then added to a final concentration of 10 mM to initiate the reaction. Reactions were then quenched after a further 15 min by flash freezing. The amount of Cit produced in the reaction was quantified using our assay for Cit production.
Test [3] addresses T1, PAD4. Put plainly: Time course assays / inactivation kinetics (Example 2). Format: biochemical. Particulars: 2 mM BAEE.
For test [4], the target named is T1, PAD4. Put plainly: Time course inhibition assays (Example 1). Particulars: 10 mM BAEE, 10 mM CaCl2.
Procedure: Time course experiments were performed in assay buffers containing 10 mM BAEE, 100 mM HEPES (pH 7.6), 50 mM NaCl, 500 μM TCEP and 10 mM CaCl2 in the presence of various amounts of inhibitors. The assay buffers were pre-incubated at 37° C. for 10 minutes. […] At different time points, 60 μl of the reactions was withdrawn and quenched by flash freezing in liquid nitrogen. Color development and absorbance measurement at 540 nm of the samples were done as described in IC50 assays. […] [P]=vi[1−exp(−kobst)]/kobs (Eq. 2) where vi is the initial velocity, kobs is the pseudo-first-order rate constant, and [P] refers to the concentration of citrulline produced during the reaction process.
In test [5] the target is T1, PAD4. Put plainly: H3-amidine inhibition assays. The settings on record: BAEE substrate; 0, 5, 10 mM H3-amidine; read-out: Kis (linear competitive inhibition). Format: biochemical. The protocol: Initial rates were determined in the absence and presence of various amounts of H3-amidine (0, 5, 10 mM), using BAEE as the substrate. […] After incubation at 37° C. for 15 min, the reactions were quenched and the amount of Cit produced quantified. The initial rates derived from these experiments were fit by non-linear least fit squares to equations representing linear competitive inhibition (Equation 4) and linear noncompetitive inhibition (Equation 5), using the using the GraFit™ version 5.0.11 software package. v=Vm[S]/(Km(1+[I]/Kis)+[S]) (Eq. 4) v=Vm[S]I(Km(1+[I]/Kis)+[S](1+[I]/Kii)) (Eq. 5)
Kii represents Ki intercept and Kis represents Ki slope. Comparisons of the standard errors derived from fits of the data to Equations 4 and 5 are most consistent with H3-amidine being a competitive inhibitor.

Test [6] has as its target T1, PAD4. The experiment in a line: Inhibition assays with compound 1 (mode of inhibition, BAEE substrate). In kind it is biochemical. Particulars: 0, 5, 10 mM compound 1, read-out: Kis (linear competitive inhibition).
For test [7], the target named is T1, PAD4. The experiment in a line: IC50 assays of compounds 1, 2 and 3 (Example 1). The settings on record: pre-incubation with PAD4 and Ca2+ (10 mM) for 10 min; BAEE 1 mM final; 20 min.
Procedure: PAD4 used in this work was GST-cleaved full-length PAD4 that was purified. A recombinant human PAD4 Escherichia coli expression system that was obtained from the Yamada group was transformed into E. coli Rosetta cells (EMD Biosciences) for the expression of fall-length PAD4 with an 8-residue N-terminal linker that is fused in frame to a PreScission protease cleavable GST tag.
The aforementioned reaction mixtures were pre-incubated with PAD4 (0.5 μM) at 37° C. for 10 minutes prior to the addition of BAEE (1 mM final concentration) to initiate the reaction. After 20 minutes the reactions were quenched by flash freezing in liquid nitrogen. […] The absorbance at 540 μm was then measured and compared to a Cit standard curve to determine the concentration of Cit produced during the course of the reactions.
Test [8] has as its system PAD4. Particulars: known PAD inhibitor; cited from earlier work.
Where [9] appears, read: preincubation with PAD4 in 10 mM calcium for 15 min, read-out: IC50.

Where two headings read alike, the source gives them in different places.

T1 sequence (Q9UM07 whole entry): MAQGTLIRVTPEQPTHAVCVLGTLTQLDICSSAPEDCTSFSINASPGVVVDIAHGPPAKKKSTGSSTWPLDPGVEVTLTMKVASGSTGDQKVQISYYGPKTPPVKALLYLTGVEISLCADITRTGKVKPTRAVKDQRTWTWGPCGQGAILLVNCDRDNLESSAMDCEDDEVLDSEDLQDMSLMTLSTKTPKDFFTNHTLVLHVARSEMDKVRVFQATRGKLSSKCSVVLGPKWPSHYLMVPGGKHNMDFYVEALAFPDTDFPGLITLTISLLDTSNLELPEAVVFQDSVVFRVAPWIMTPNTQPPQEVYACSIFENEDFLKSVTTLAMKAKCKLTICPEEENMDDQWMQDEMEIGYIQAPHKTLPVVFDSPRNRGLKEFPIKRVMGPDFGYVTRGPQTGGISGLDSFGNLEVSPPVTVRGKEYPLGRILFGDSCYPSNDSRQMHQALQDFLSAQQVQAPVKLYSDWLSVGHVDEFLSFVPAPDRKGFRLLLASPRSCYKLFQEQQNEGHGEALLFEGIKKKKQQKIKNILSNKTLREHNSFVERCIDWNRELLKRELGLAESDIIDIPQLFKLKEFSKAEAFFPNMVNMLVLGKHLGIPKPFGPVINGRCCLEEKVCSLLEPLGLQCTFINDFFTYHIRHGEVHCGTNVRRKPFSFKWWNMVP

For the compound `N=C(N)CCl` [2-chloroacetamidine], the Ki at PAD4 [1] was 20 mM. Besides, on PAD4 [1] (reported by the Fast group), the kinact/KI (as a rule, the second-order rate constant of inactivation) was 0.583 M⁻¹ s⁻¹.
On to `N=C(CCl)NCC[C@H](NC(=O)c1ccccc1)C(N)=O` [Cl2-amidine, N-α-benzoyl-N^4-(2-chloro-1-iminoethyl)-L-Dab amide], for which the IC50 (as a rule, the midpoint of a concentration-inhibition curve) at PAD4 [2] (setting [9]) came out at 0.585 ± 0.065 mM.
As to `NC(=O)[C@H](CCCNC(=O)CCl)NC(=O)c1ccccc1` [Cl3-acetamide, N-α-benzoyl-N^5-(2-chloroacetyl)-L-Orn amide], on PAD4 [2], the “inhibition at the highest concentration tested” value is reported as “no inhibition”. For the same compound, at PAD4 [2] (setting [9]), the IC50 was greater than 0.5 mM.
For `N=C(CCl)NCCCC[C@H](NC(=O)c1ccccc1)C(N)=O` [Cl4-amidine, N-α-benzoyl-N^6-(2-chloro-1-iminoethyl)-L-Lys amide], the IC50 on PAD4 [2] (setting [9]) is 0.64 ± 0.01 mM.
For the compound `N=C(CF)NCC[C@H](NC(=O)c1ccccc1)C(N)=O` [F2-amidine, N-α-benzoyl-N^4-(2-fluoro-1-iminoethyl)-L-Dab amide], the observed activity on PAD4 [2] (at 1000 μM) is 93 % of control. For the same compound, the IC50 on PAD4 [2] (setting [9]) is greater than 1 mM. Also, at PAD4 [3], the “time course of product formation” value was “linear with respect to time”.
For `NC(=O)[C@H](CCCNC(=O)CF)NC(=O)c1ccccc1` [F3-acetamide, N-α-benzoyl-N^5-(2-fluoroacetyl)-L-Orn amide], the “inhibition at the highest concentration tested” value at PAD4 [2] is given as “no inhibition”. Also, the IC50 at PAD4 [2] (IC50, preincubation with PAD4 in 10 mM calcium for 15 min) is greater than 0.5 mM.
For the compound `N=C(CF)NCCC[C@H](NC(=O)c1ccccc1)C(N)=O` [F3-amidine, N-α-benzoyl-N^5-(2-fluoro-1-iminoethyl)-L-ornithine amide], the “time dependence of inhibition (progress curves)” value at PAD4 [4] is on record as “time dependent inhibition properties”.
In the case of `N=C(CF)NCCCC[C@H](NC(=O)c1ccccc1)C(N)=O` [F4-amidine, N-α-benzoyl-N^6-(2-fluoro-1-iminoethyl)-L-Lys amide], the IC50 on PAD4 [2] (setting [9]) was found to be 0.655 ± 0.1 mM.
As to `CC(=N)NCC[C@H](NC(=O)c1ccccc1)C(N)=O` [H2-amidine, N-α-benzoyl-N^4-(1-iminoethyl)-L-Dab amide], the IC50 at PAD4 [2] (setting [9]) was greater than 1 mM. Also, the “time course of product formation” value at PAD4 [3] is recorded as “linear with respect to time”.
For the compound `CC(=N)NCCC[C@H](NC(=O)c1ccccc1)C(N)=O` [H3-amidine, N-α-benzoyl-N^5-(1-iminoethyl)-L-Orn amide], the half-maximal inhibitory concentration (IC50) at PAD4 [2] (setting [9]) is greater than 1 mM. Moreover, the “time course of product formation” value at PAD4 [3] was “linear with respect to time”. In addition, the Ki on PAD4 [5] was 3.2 ± 0.9 mM.
`CC(=N)NCCCC[C@H](NC(=O)c1ccccc1)C(N)=O` [H4-amidine, N-α-benzoyl-N^6-(1-iminoethyl)-L-Lys amide]: the concentration for half-maximal inhibition (IC50) on PAD4 [2] (setting [9]) is greater than 1 mM. In addition, the “time course of product formation” value at PAD4 [3] is “linear with respect to time”.
Take `CC(=N)NCCC[C@H](NC(=O)c1ccccc1)C(=O)O` [H-Amidine, N-α-benzoyl-N^5-(1-iminoethyl)-L-ornithine]: the Ki on PAD4 [6] came to 1.7 ± 0.2 mM. Also, the “time dependence of inhibition (progress curves)” value on PAD4 [4] is “does not display time dependent inhibitory properties”. On PAD4 [7], this compound showed an IC50 of 4.3 ± 0.7 mM.
In the case of `CC(=O)O[C@H]1C(=O)[C@@]2(C)[C@H]([C@H](OC(=O)c3ccccc3)[C@]3(O)C[C@H](OC(=O)[C@H](O)[C@@H](NC(=O)c4ccccc4)c4ccccc4)C(C)=C1C3(C)C)[C@]1(OC(C)=O)CO[C@@H]1C[C@@H]2O` [taxol], the 50% inhibitory concentration (IC50) in the test on PAD4 [8] was roughly 5 mM.
